# Laboratory results: publication PMC10648875 (Antimicrobial Agents and Chemotherapy, 2023)
# Assays:
# [1] = system: P. aeruginosa BAA-3197 (PA5257), KPC-2; test: MIC, reference strain; type: cell-based; settings: Pseudomonas aeruginosa, BAA3197; KPC-2; BLI at the fixed concentration in brackets; read-out: MIC
# [2] = system: Escherichia coli NCTC 13353 (ECM7514), CTX-M-15; test: MIC, reference strain; type: cell-based; settings: Escherichia coli, NCTC13353; CTX-M-15; BLI at the fixed concentration in brackets; read-out: MIC
# Experimental: (§1) Other BL/BLI combinations were tested at their recommended BLI concentrations. MIC values for the partner antibiotics and BLIs alone were also determined (Table 2; Table S1). All investigational and marketed BLIs enhanced the potency of antibiotics according to their spectrum of inhibition. MIC values against CLSI-approved QC strains were within acceptable ranges for drugs and combinations tested (Table 3).
# (§2) Isolates were tested for antimicrobial susceptibility using the broth microdilution methodology per CLSI M07 (2018) guidelines ([40]). JMI Laboratories produced frozen-form 96-well panels with cation-adjusted Mueller-Hinton broth as the testing medium. Current CLSI quality assurance practices were followed when performing the susceptibility tests. MIC values were validated by concurrently testing the following CLSI-recommended ([27]) QC reference strains: E. coli NCTC 13353 (CTX-M-15), Klebsiella pneumoniae ATCC BAA-2814 (KPC-3), Klebsiella pneumoniae ATCC BAA-1705 (KPC-2), and K. pneumoniae ATCC 700603 (SHV-18). The inoculum density during susceptibility testing was monitored by bacterial colony counts. Where applicable, QC ranges for tested reference strains were those approved or published by the CLSI ([27]). Meropenem was purchased from Carbosynth; ceftolozane was synthesized at Acme Bioscience, Palo Alto, CA, USA; all other antibiotics were from Sigma Aldrich. Xeruborbactam was synthesized at Qpex Biopharma, San Diego, CA, USA. Avibactam was purchased from eNovation, Chemicals LLC, Bridgewater, NJ, USA. Vaborbactam was synthesized at The Medicines Company, San Diego, CA. Relebactam, taniborbactam, and relebactam were synthesized at Acme Bioscience.
# [3] = system: K. pneumoniae ATCC BAA-2814 (KP1074), KPC-3; test: MIC, reference strain; type: cell-based; settings: Klebsiella pneumoniae, ATCCBAA2814; KPC-3; BLI at the fixed concentration in brackets; read-out: MIC
# Experimental: as §1
# as §2, with “([27]).” for “([27]). Meropenem was purchased from Carbosynth; ceftolozane was synthesized at Acme Bioscience, Palo Alto, CA, USA; all other antibiotics were from Sigma Aldrich. Xeruborbactam was synthesized at Qpex Biopharma, San Diego, CA, USA. Avibactam was purchased from eNovation, Chemicals LLC, Bridgewater, NJ, USA. Vaborbactam was synthesized at The Medicines Company, San Diego, CA. Relebactam, taniborbactam, and relebactam were synthesized at Acme Bioscience.”
# [4] = system: Klebsiella pneumoniae ATCC 700603 (KPM2881), SHV-18; test: MIC, reference strain; type: cell-based; settings: Klebsiella pneumoniae, ATCC700603; SHV-18; BLI at the fixed concentration in brackets; read-out: MIC
# Experimental: as §1
# as §2, with “([27]).” for “([27]). Meropenem was purchased from Carbosynth; ceftolozane was synthesized at Acme Bioscience, Palo Alto, CA, USA; all other antibiotics were from Sigma Aldrich. Xeruborbactam was synthesized at Qpex Biopharma, San Diego, CA, USA. Avibactam was purchased from eNovation, Chemicals LLC, Bridgewater, NJ, USA. Vaborbactam was synthesized at The Medicines Company, San Diego, CA. Relebactam, taniborbactam, and relebactam were synthesized at Acme Bioscience.”
# [5] = system: K. pneumoniae CDC 0135 (KP1291), VIM-1; test: MIC, reference strain; type: cell-based; settings: Klebsiella pneumoniae, BLI at the fixed concentration in brackets, read-out: MIC
# Experimental: as §1
# as §2, with “([27]).” for “([27]). Meropenem was purchased from Carbosynth; ceftolozane was synthesized at Acme Bioscience, Palo Alto, CA, USA; all other antibiotics were from Sigma Aldrich. Xeruborbactam was synthesized at Qpex Biopharma, San Diego, CA, USA. Avibactam was purchased from eNovation, Chemicals LLC, Bridgewater, NJ, USA. Vaborbactam was synthesized at The Medicines Company, San Diego, CA. Relebactam, taniborbactam, and relebactam were synthesized at Acme Bioscience.”
# [6] = system: E. coli CDC 0069 (EC1106), NDM-1; test: MIC, reference strain; type: cell-based; settings: Escherichia coli, BLI at the fixed concentration in brackets, read-out: MIC
# Experimental: as §1
# as §2, with “([27]).” for “([27]). Meropenem was purchased from Carbosynth; ceftolozane was synthesized at Acme Bioscience, Palo Alto, CA, USA; all other antibiotics were from Sigma Aldrich. Xeruborbactam was synthesized at Qpex Biopharma, San Diego, CA, USA. Avibactam was purchased from eNovation, Chemicals LLC, Bridgewater, NJ, USA. Vaborbactam was synthesized at The Medicines Company, San Diego, CA. Relebactam, taniborbactam, and relebactam were synthesized at Acme Bioscience.”
# [7] = system: K. pneumoniae ATCC BAA-1705 (KPM1123), KPC-2; test: MIC, reference strain; type: cell-based; settings: Klebsiella pneumoniae, ATCCBAA1705; KPC-2; BLI at the fixed concentration in brackets; read-out: MIC
# Experimental: as §1
# as §2, with “([27]).” for “([27]). Meropenem was purchased from Carbosynth; ceftolozane was synthesized at Acme Bioscience, Palo Alto, CA, USA; all other antibiotics were from Sigma Aldrich. Xeruborbactam was synthesized at Qpex Biopharma, San Diego, CA, USA. Avibactam was purchased from eNovation, Chemicals LLC, Bridgewater, NJ, USA. Vaborbactam was synthesized at The Medicines Company, San Diego, CA. Relebactam, taniborbactam, and relebactam were synthesized at Acme Bioscience.”
# [8] = system: ESBL-producing Enterobacterales; test: organism not typed; type: cell-based; settings: ESBL (N = 521); xeruborbactam and vaborbactam fixed 8 mg/L, all other BLIs 4 mg/L
# [9] = system: ESBL-producing and carbapenem-resistant Enterobacterales (All, N = 1028); test: organism not typed; type: cell-based; settings: All (N = 1028); xeruborbactam and vaborbactam fixed 8 mg/L, all other BLIs 4 mg/L
# [10] = system: carbapenem-resistant Enterobacterales (subset of 507 isolates); test: organism not typed; type: cell-based; settings: xeruborbactam and vaborbactam fixed 8 mg/L, all other BLIs 4 mg/L
# CTX-M-15 = CTX-M-15 (Escherichia coli, UniProt Q9EXV5); test: Ki app of β-lactamase inhibition, purified enzyme; type: biochemical; settings: 10-minute preincubation; nitrocefin substrate
# Chain of CTX-M-15 (Q9EXV5 entry or part of it): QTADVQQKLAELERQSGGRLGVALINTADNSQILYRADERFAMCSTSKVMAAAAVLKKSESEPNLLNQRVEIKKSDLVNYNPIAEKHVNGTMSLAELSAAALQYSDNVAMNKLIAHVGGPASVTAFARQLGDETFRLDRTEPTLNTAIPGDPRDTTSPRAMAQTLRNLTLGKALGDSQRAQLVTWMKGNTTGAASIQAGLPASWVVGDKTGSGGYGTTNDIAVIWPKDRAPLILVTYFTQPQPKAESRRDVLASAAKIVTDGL
# Experimental: (§3) The majority of purified β-lactamase enzymes used in the study were either expressed and purified internally ([35]) or obtained from Emerald Biostructures (Bainbridge Island, WA, USA). L1 enzyme was purified as described in reference ([36]).
# (§4) Enzymes were mixed with BLIs at concentrations varying from 160 to 0.0027 µM in 50-mM Na-phosphate pH7.0, 0.1-mg/mL bovide serum albumin (BSA) (buffer A; 20-µM ZnCl2 was also added for all metalloenzymes) and incubated for 10 minutes at 37°C. Nitrocefin (50 µM) (10 µM for SHV-12) or 100 µM of imipenem (prewarmed at 37°C for 10 minutes) was added, and substrate cleavage profiles were recorded at 37°C at 490 nm every 10 seconds for 10 minutes or at 294 nm every 30 seconds for 1 hour for nitrocefin and imipenem, respectively. […] Ki app values (Ki for metalloenzymes) were calculated by the method of Waley ([37]).
# SHV-12 = SHV-12 (Klebsiella pneumoniae, UniProt P0AD64, E235K/G234S/L31Q); test: Ki app of β-lactamase inhibition, purified enzyme; type: biochemical
# Chain of SHV-12 (P0AD64 22-286 L31Q/G234S/E235K): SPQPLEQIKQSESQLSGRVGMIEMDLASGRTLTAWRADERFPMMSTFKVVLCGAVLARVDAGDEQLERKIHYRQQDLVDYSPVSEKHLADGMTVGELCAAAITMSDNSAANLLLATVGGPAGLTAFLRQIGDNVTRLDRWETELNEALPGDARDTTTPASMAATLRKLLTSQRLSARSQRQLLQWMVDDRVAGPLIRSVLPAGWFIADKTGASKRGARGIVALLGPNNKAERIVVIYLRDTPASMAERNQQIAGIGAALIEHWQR
# Experimental: as §3, §4
# CTX-M-14 = CTX-M-14 (Escherichia coli, UniProt Q9L5C7); test: Ki app of β-lactamase inhibition, purified enzyme; type: biochemical; settings: 10-minute preincubation; nitrocefin substrate
# Chain of CTX-M-14 (Q9L5C7 entry or part of it): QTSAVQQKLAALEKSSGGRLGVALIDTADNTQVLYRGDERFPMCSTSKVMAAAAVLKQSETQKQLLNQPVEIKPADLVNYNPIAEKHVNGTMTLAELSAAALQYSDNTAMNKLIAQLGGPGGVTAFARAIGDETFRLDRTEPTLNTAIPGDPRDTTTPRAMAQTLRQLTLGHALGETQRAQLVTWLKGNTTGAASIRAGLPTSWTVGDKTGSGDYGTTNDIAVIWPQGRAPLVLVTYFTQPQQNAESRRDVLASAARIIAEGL
# Experimental: as §3, §4
# P99 = P99 (Enterobacter cloacae, UniProt P05364); test: Ki app of β-lactamase inhibition, purified enzyme; type: biochemical; settings: Ki app
# Chain of P99 (P05364 21-381): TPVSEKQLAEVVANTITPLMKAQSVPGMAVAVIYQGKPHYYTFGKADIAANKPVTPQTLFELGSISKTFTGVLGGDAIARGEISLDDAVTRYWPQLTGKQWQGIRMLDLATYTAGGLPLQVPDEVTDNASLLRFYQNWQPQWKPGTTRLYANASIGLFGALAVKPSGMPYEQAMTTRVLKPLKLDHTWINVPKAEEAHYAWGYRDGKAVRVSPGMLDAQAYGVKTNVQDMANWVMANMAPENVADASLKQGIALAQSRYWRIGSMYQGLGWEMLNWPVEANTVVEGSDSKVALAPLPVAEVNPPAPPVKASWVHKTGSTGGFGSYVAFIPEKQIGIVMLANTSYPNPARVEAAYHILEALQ
# Experimental: as §3, §4
# NDM-1 = NDM-1 (Klebsiella pneumoniae, UniProt C7C422); test: biochemical
# Chain of NDM-1 (C7C422 29-270 limits assumed): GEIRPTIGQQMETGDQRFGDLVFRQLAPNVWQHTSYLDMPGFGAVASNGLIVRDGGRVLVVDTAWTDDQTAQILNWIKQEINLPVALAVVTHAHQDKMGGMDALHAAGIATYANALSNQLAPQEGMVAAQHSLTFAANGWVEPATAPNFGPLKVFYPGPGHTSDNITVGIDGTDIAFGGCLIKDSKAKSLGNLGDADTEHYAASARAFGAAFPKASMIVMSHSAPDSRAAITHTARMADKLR
# Experimental: as §3, §4
# VIM-1 = VIM-1 (Pseudomonas aeruginosa, UniProt A0A0F7KYQ8); test: Ki of metallo-β-lactamase inhibition, purified enzyme; type: biochemical; settings: 10-minute preincubation; nitrocefin substrate
# Experimental: as §3, §4
# IMP-1 = IMP-1 (Serratia marcescens, UniProt P52699); test: as above; type: biochemical
# Chain of IMP-1 (P52699 19-246 limits assumed): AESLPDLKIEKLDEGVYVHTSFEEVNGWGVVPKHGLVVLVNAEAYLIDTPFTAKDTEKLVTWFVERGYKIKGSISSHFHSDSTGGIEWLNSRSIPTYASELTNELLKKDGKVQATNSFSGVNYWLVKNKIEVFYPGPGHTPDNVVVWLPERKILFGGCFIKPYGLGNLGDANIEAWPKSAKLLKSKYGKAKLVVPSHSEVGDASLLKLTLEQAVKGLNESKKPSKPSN
# Experimental: as §3, §4
MIC [1],MIC [2],MIC [3],MIC [4],MIC [5],MIC [6],MIC [7],Compound,further results
> 64 µg/mL,64 µg/mL,> 64 µg/mL,16 µg/mL,> 64 µg/mL,> 64 µg/mL,64 µg/mL,"CC(C)(O/N=C(\C(=O)N[C@@H]1C(=O)N2C(C(=O)[O-])=C(C[n+]3ccccc3)CS[C@H]12)c1csc(N)n1)C(=O)O [CAZ, ceftazidime]",–
32 µg/mL,> 64 µg/mL,> 64 µg/mL,8 µg/mL,> 64 µg/mL,> 64 µg/mL,64 µg/mL,"Cn1c(N)c(NC(=O)NCCN)c[n+]1CC1=C(C(=O)O)N2C(=O)[C@@H](NC(=O)/C(=N\OC(C)(C)C(=O)[O-])c3nsc(N)n3)[C@H]2SC1 [TOL, ceftolozane]",–
–,–,–,–,–,–,–,CO/N=C(\C(=O)N[C@@H]1C(=O)N2C(C(=O)O)=C(CSc3nc(=O)c(O)nn3C)CS[C@H]12)c1csc(N)n1 [CRO],MIC50 [8]: >32 µg/mL; MIC90 [8]: >32 µg/mL; MIC50 [9]: >32 µg/mL; MIC90 [9]: >32 µg/mL; MIC50 ([10]; CRE (N = 507)): >32 µg/mL; MIC90 ([10]; CRE (N = 507)): >32 µg/mL; MIC50 ([10]; KPC (N = 193)): >32 µg/mL; MIC90 ([10]; KPC (N = 193)): >32 µg/mL; MIC50 ([10]; MBL (N = 168)): >32 µg/mL; MIC90 ([10]; MBL (N = 168)): >32 µg/mL; MIC50 ([10]; Non-CP CRE (N = 50)): >32 µg/mL; MIC90 ([10]; Non-CP CRE (N = 50)): >32 µg/mL; MIC50 ([10]; OXA-48-like (N = 96)): >32 µg/mL; MIC90 ([10]; OXA-48-like (N = 96)): >32 µg/mL

Compound,MIC [1],MIC [2],MIC [3],MIC [4],MIC [5],MIC [6],MIC [7],further results
"NC(=O)[C@@H]1CC[C@@H]2CN1C(=O)N2OS(=O)(=O)O [Avibactam, avibactam]",> 64 µg/mL,16 µg/mL,64 µg/mL,32 µg/mL,> 64 µg/mL,8 µg/mL,16 µg/mL,Ki (CTX-M-15): 0.18 ± 0.08 nM; Ki (SHV-12): 0.24 ± 0.07 nM; Ki (CTX-M-14): 0.41 ± 0.13 nM; Ki (P99): 10 ± 2 nM; Ki (NDM-1): > 160000 nM; Ki (VIM-1): > 160000 nM; Ki (IMP-1): > 160000 nM
